Experimental data reported in US8575193B2, “N-substituted tetrahydroisoquinoline/isoindoline hydroxamic acid compounds” (4SC AG, priority 2008, dated 2013).
Structures can show the parent of a compound that is named as a salt.

Tests used:
rHDAC3 = target: T1, rHDAC3 (Homo sapiens, UniProt O15379); assay: rHDAC3 enzymatic assay (recombinant FLAG-HDAC3); type: biochemical; settings: FLAG-HDAC3 from insect cells; 6 μM Ac-NH-GGK(Ac)-AMC, 2 h at 30° C.; read-out: rHDAC3 [pIC50] (converted)
T1 construct: FLAG; made in house; host or cells: baculovirus-infected Sf21 insect cells
Source text: (§1) Human HDAC1 and HDAC6 fused with the FLAG epitope are stably expressed in HEK293 cells while human HDAC3 and HDAC8 fused with the FLAG epitope are overexpressed in baculo-virus infected insect (Sf21) cells. To ensure stability of FLAG-HDAC3 the SMRT protein is co-expressed in the corresponding insect cells. […] FLAG-HDAC3 and FLAG-HDAC8 are also purified by M2-agarose affinity chromatography after mass cultivation of the insect cells and cell lysis.
(§2) The HDAC enzyme activity assay is done as described by Wegener et al. (Chem. & Biol. 10, 61-68, 2003). Briefly 40 μl of a 1:100 dilution (=0.4 μl) nuclear HeLa extract (mixture of class I and II HDACs), 29 μl enzyme buffer (15 mM Tris HCl pH 8.1, 0.25 mM EDTA, 250 mM NaCl, 10% v:v glycerol) and 1 μl test compound are added to a well of a 96 well microtiter plate and reaction started by addition of 3 μl substrate (Ac-NH-GGK(Ac)-AMC; final concentration 25 μM and final volume […]). […] After incubation at room temperature for further 40 min, fluorescence is measured using a Wallac Victor 1420 multilabel counter (Ex 355 nm, Em 460 nm) for quantification of AMC (7-amino-4-methylcoumarin) generated by trypsine cleavage of the deacetylated peptide. […] The corresponding pIC50 values of the compounds for HDAC inhibitory activity are determined from the concentration-effect curves by means of non-linear regression (Graphpad Prism software).
(§3) The HDAC1, HDAC3 and HDAC6 enzymatic assays are done with slight modifications with recombinant FLAG-HDAC1 and FLAG-HDAC6 proteins isolated from HEK293 cell lysates or recombinant FLAG-HDAC3 isolated from insect cells, respectively. The HDAC8 enzymatic assay using recombinant FLAG-HDAC8 isolated from insect cells is done with a different substrate. About 4.5 ng/well FLAG-HDAC1 and 3.1 ng/well FLAG-HDAC6 (dependent on batches and specific activity) are incubated with 6 μM or 10 μM Ac-NH-GGK(Ac)-AMC substrate, respectively, for 3 h at 30° C. About 1.7 ng/well FLAG-HDAC3 is incubated with 6 μM Ac-NH-GGK(Ac)-AMC substrate for 2 h at 30° C., while approximately 130 ng/well FLAG-HDAC8 is incubated with 50 μM Ac-RHK(Ac)K(Ac)-AMC substrate for 3 h at 30° C. Termination of the reaction and all further steps are done as described for HeLa cell nuclear extracts as a source for HDAC enzymatic activity. The corresponding pIC50 values of the compounds for HDAC1, HDAC3, HDAC6 and HDAC8 inhibitory activity are determined from the concentration-effect curves by means of non-linear regression.

rHDAC8 = target: T2, rHDAC8 (Homo sapiens, UniProt Q9BY41); assay: rHDAC8 enzymatic assay (recombinant FLAG-HDAC8); type: biochemical; settings: FLAG-HDAC8 from insect cells; 50 μM Ac-RHK(Ac)K(Ac)-AMC, 3 h at 30° C.; read-out: rHDAC8 [pIC50] (converted)
T2 construct: FLAG; made in house; host or cells: baculovirus-infected Sf21 insect cells
T2 sequence (Q9BY41 1-377): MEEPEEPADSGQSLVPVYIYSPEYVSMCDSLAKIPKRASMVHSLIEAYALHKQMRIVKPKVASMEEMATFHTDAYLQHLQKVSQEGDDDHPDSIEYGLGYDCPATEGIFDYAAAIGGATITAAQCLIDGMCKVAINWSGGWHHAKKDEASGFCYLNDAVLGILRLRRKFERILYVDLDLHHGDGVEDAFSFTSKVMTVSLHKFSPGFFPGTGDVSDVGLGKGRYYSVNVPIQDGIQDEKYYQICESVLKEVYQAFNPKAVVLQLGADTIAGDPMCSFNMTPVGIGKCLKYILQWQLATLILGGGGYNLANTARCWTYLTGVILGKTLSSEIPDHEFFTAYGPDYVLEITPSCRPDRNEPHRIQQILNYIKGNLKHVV
Source text: as §1, §2, §3

[1] = Cellular cytotoxicity assay (Alamar Blue/Resazurin), A549; type: cell-based; settings: human, A549 cells; A549, 72 hours incubation, Resazurin; read-out: A549 Cytotoxicity [pIC50] (converted)
Experimental: (§4) The anti-proliferative activity of the compounds as described herein, is evaluated with various solid and hematological cancer cell lines using the Alamar Blue (Resazurin) cell viability assay (O'Brien et al, Eur J Biochem 267, 5421-5426, 2000). Resazurin is reduced to the fluorescent resorufin by cellular dehydrogenase activity, correlating with viable, proliferating cells. Test compounds are dissolved as 20 mM solutions in dimethylsulfoxide (DMSO) and subsequently diluted in semi-logarithmic steps. The cancer cell lines are seeded into 96 well flat bottom plates at respective cell densities in a volume of 200 μl per well to allow continuous proliferation during the experiment. 24 hours after seeding 1 μl each of the compound dilutions is added into each well of the 96 well plate. Wells containing untreated control cells are filled with 200 μl DMEM medium containing 0.5% v:v DMSO. The cells are then incubated with the substances for 72 hours at 37° C. in a humidified atmosphere containing 5% carbon dioxide. To determine the viability of the cells, 20 μl of a Resazurin solution (Sigma; 90 mg/l) are added. After 4 hours incubation at 37° C. the fluorescence is measured at an extinction of 544 nm and an emission of 590 nm. For the calculation of the cell viability the emission value from untreated cells is set as 100% viability and the emission rates of treated cells are set in relation to the values of untreated cells. Viabilities are expressed as % values. The corresponding pIC50 values of the compounds for cytotoxic activity are determined from the concentration-effect curves by means of non-linear regression.

rHDAC1 = target: T3, rHDAC1 (Homo sapiens, UniProt Q13547); assay: rHDAC1 enzymatic assay (recombinant FLAG-HDAC1); type: biochemical; settings: FLAG-HDAC1 from HEK293; 6 μM Ac-NH-GGK(Ac)-AMC, 3 h at 30° C.; read-out: rHDAC1 [pIC50] (converted)
T3 construct: FLAG; made in house
Source text: as §1, §2, §3

[2] = Cellular cytotoxicity assay (Alamar Blue/Resazurin), HeLa; type: cell-based; settings: human, HeLa cells, 72 hours incubation, Resazurin, read-out: HeLa Cytotoxicity [pIC50] (converted)
Experimental: as §4

T1 sequence (O15379 whole entry): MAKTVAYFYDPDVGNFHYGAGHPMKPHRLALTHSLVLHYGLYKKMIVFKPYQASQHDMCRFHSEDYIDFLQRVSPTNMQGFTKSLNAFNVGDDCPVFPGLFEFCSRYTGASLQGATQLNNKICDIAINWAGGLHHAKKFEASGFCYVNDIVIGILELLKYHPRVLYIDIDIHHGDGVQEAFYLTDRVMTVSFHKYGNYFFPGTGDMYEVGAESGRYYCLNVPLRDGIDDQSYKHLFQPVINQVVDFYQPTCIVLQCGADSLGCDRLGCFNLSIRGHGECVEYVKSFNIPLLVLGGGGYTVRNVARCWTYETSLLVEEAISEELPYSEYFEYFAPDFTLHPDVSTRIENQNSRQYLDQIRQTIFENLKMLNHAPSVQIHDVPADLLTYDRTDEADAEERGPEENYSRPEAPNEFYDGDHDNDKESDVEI
T1 sequence (Q9Y618 whole entry partner): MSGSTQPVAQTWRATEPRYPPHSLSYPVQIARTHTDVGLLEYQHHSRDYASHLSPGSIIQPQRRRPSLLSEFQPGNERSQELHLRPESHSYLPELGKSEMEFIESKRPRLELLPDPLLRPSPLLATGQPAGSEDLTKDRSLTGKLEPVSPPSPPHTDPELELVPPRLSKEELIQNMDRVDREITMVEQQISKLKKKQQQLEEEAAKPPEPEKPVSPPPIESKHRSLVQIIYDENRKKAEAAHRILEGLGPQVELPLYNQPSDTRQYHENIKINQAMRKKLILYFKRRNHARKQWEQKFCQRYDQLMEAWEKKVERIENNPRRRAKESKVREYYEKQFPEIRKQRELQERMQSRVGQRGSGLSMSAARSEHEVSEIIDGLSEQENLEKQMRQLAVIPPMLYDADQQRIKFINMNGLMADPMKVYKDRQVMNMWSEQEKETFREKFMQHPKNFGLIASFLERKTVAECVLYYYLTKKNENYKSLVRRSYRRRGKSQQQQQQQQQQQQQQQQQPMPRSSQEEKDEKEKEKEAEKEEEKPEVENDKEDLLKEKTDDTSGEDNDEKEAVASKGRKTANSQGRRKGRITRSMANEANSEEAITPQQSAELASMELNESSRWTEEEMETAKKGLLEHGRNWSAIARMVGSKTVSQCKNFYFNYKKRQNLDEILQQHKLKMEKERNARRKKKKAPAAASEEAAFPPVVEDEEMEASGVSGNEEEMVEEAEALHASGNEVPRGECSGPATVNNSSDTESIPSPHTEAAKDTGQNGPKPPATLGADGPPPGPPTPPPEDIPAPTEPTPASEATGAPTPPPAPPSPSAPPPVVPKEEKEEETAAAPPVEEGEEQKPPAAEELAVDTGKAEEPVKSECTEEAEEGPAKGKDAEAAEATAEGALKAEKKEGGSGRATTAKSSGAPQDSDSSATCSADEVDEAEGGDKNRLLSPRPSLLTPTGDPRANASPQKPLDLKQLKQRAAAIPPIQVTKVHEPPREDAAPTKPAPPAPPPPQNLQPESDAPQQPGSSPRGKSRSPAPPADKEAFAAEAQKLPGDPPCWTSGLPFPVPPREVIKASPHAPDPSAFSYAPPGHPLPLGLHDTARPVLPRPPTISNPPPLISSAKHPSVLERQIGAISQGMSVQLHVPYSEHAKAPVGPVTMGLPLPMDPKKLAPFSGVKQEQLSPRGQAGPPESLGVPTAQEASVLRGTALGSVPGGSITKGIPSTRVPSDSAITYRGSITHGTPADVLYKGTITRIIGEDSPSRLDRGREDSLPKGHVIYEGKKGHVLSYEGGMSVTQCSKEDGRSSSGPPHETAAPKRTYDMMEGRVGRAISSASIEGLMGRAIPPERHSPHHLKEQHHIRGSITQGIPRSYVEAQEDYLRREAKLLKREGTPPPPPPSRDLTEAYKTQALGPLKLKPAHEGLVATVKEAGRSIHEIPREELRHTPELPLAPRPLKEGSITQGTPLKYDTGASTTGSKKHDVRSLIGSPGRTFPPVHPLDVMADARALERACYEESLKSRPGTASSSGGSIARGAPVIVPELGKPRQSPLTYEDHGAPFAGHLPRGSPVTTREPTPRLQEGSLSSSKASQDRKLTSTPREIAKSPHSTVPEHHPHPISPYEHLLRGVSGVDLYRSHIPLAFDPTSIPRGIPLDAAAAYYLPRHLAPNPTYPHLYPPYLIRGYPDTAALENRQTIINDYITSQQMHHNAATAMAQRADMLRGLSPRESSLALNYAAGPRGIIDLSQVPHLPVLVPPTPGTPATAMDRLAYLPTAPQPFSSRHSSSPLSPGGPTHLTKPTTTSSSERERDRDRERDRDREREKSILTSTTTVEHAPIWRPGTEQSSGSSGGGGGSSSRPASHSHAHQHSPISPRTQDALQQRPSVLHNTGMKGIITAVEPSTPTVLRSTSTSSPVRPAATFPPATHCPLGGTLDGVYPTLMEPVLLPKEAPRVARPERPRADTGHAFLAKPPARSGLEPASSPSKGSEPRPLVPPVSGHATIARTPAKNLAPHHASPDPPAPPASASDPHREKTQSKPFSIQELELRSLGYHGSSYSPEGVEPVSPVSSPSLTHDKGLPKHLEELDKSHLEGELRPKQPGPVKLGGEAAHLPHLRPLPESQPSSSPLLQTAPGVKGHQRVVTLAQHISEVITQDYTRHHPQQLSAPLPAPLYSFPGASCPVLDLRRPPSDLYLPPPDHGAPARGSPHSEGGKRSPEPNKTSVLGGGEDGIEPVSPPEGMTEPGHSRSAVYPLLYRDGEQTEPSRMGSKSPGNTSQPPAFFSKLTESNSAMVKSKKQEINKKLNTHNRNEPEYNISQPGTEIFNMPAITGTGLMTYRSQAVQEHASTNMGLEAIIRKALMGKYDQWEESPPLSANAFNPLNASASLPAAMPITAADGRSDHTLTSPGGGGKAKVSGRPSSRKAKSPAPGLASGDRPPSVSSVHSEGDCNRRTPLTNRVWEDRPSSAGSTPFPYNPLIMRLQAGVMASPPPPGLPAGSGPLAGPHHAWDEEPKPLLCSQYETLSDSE
T3 sequence (Q13547 whole entry): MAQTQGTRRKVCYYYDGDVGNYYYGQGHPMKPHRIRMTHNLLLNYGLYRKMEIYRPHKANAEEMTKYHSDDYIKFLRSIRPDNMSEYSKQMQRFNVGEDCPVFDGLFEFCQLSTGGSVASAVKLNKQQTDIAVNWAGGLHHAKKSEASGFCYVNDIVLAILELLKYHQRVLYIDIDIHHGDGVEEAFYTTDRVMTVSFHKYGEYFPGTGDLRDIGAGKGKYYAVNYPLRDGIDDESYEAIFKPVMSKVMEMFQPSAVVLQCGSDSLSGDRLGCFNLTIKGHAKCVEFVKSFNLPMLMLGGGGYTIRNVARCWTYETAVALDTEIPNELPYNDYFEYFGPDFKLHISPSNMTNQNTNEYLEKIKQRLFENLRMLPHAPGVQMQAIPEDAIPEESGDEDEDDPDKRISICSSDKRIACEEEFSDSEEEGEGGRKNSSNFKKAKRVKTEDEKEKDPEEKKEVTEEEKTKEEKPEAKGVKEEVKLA

Row | Structure (SMILES) | IC50 (rHDAC3) [µM] | IC50 (rHDAC8) [µM] | IC50 at 72 h [1] [µM] | IC50 (rHDAC1) [µM] | IC50 at 72 h [2] [µM]
1 | O=C(NO)c1ccc2c(c1)CCN(C(=O)Cc1cccnc1)C2 [Example 8, N-Hydroxy-2-(pyridin-3-ylacetyl)-1,2,3,4-tetrahydroisoquinoline-6-carboxamide hydrochloride] | 10 to 100 | 1 to 10 | > 100 | 10 to 100 | > 100
2 | COc1ccc2[nH]c(C(=O)N3CCc4cc(C(=O)NO)ccc4C3)cc2c1 [Example 15, N-Hydroxy-2-[(5-methoxy-1H-indol-2-yl)carbonyl]-1,2,3,4-tetrahydroisoquinoline-6-carboxamide] | 1 to 10 | 1 to 10 | 1 to 100 | 0.1 to 10 | 1 to 100
3 | COc1ccc2[nH]c(C(=O)N3CCc4ccc(C(=O)NO)cc4C3)cc2c1 [Example 24, N-Hydroxy-2-[(5-methoxy-1H-indol-2-yl)carbonyl]-1,2,3,4-tetrahydroisoquinoline-7-carboxamide] | 1 to 10 | 0.01 to 1 | 1 to 100 | 0.1 to 10 | 1 to 100
4 | Cc1nccn1CC(=O)N1CCc2cc(C(=O)NO)ccc2C1 [Example 10, N-Hydroxy-2-[(2-methyl-1H-imidazol-1-yl)acetyl]-1,2,3,4-tetrahydroisoquinoline-6-carboxamide hydrochloride] | 10 to 100 | 1 to 10 | > 100 | 10 to 100 | > 100
5 | O=C(NO)c1ccc2c(c1)CN(C(=O)Cc1cccnc1)CC2 [Example 19, N-Hydroxy-2-(pyridin-3-ylacetyl)-1,2,3,4-tetrahydroisoquinoline-7-carboxamide hydrochloride] | 10 to 100 | 0.01 to 1 | > 100 | 0.1 to 10 | 1 to 100
6 | Cc1ccc(C(=O)N2CCc3ccc(C(=O)NO)cc3C2)cc1 [Example 23, N-Hydroxy-2-(4-methylbenzoyl)-1,2,3,4-tetrahydroisoquinoline-7-carboxamide] | 10 to 100 | 0.01 to 1 | 1 to 100 | 0.1 to 10 | 1 to 100
7 | CNC(=O)N1CCc2cc(C(=O)NO)ccc2C1 [Example 4, N6-Hydroxy-N2-methyl-3,4-dihydroisoquinoline-2,6(1H)-dicarboxamide] | 10 to 100 | 1 to 10 | > 100 | 0.1 to 10 | > 100
8 | COCCCOC(=O)N1CCc2cc(C(=O)NO)ccc2C1 [Example 6, 3-Methoxypropyl-6-(hydroxycarbamoyl)-3,4-dihydroisoquinoline-2(1H)-carboxylate] | 10 to 100 | 1 to 10 | > 100 | 10 to 100 | > 100
9 | CC(=O)N1CCc2cc(C(=O)NO)ccc2C1 [Example 12, 2-Acetyl-N-hydroxy-1,2,3,4-tetrahydroisoquinoline-6-carboxamide] | 10 to 100 | 1 to 10 | > 100 | 10 to 100 | > 100
10 | O=C(NO)c1ccc2c(c1)CCN(C(=O)CCc1cccnc1)C2 [Example 7, N-Hydroxy-2-(3-pyridin-3-ylpropanoyl)-1,2,3,4-tetrahydroisoquinoline-6-carboxamide hydrochloride] | 10 to 100 | 1 to 10 | > 100 | 10 to 100 | > 100
